Test results: PubChem BioAssay AID588780 (Sanford-Burnham Center for Chemical Genomics, 2011)
Calls of active or inactive are those of the source.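 How the source made its calls: active means compounds whose fitted half-maximal concentration in the cell-protection dose series is at or below a set limit; inactive means the rest.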

test system: H9c2 cardiomyocytes, 2-deoxyglucose stress, ATP luminescence, 2 h; assay: protection of cardiomyocytes from 2-deoxyglucose injury, dose response, cell-based, 2-deoxyglucose stress, uHTS hits (AID 588780)

**Q.** `CCOC(=O)C1=C(C)NC(C)=C(C(=O)OCCNC(=O)c2cccnc2)C1c1cccc([N+](=O)[O-])c1` (configuration not stated) was tested. Which IC50 did it give?
**A.** 28.6 µM

**Q.** How did the IC50 turn out when `Cc1cccc(NC(=O)c2nc[nH]c2C(=O)NCC(=O)OCc2ccccc2)c1` was run?
**A.** > 79 µM (inactive)

**Q.** With `Fc1ccc(NC(=S)Nc2ccc3nccnc3c2)cc1` as the compound, how does the IC50 read?
**A.** > 79 µM (inactive)

**Q.** `COc1cc(C(=O)Nc2nc(-c3cccs3)cs2)cc(OC)c1OC` was tested. Which IC50 did it give?
**A.** 7.2 µM

**Q.** For `CC(=O)Nc1ccc(S(=O)(=O)N(Cc2cccnc2)Cc2cc3ccccc3[nH]c2=O)cc1`, which IC50 is on record?
**A.** > 79 µM (inactive)

**Q.** `Nc1ncc(-c2ccccc2)n1CC1CCCO1` (configuration not stated) was tested. Which IC50 did it give?
**A.** > 79 µM (inactive)

**Q.** `CC(=O)Nc1cccc(/C(C)=N/NC(=O)c2cccs2)c1` was tested. Which IC50 did it give?
**A.** > 79 µM (inactive)

**Q.** With `CCOC(=O)C(Cc1ccc(NC(=O)/C(=C/c2ccc(OC(C)=O)cc2)NC(C)=O)cc1)N1C(=O)c2ccccc2C1=O` (configuration not stated) as the compound, how does the IC50 read?
**A.** > 79 µM (inactive)

**Q.** Which IC50 does the source give for `CCOC(=O)c1[nH]c2cc(OC)c(OC)cc2c1NC(=O)C(C)N1CCN(Cc2ccccc2)CC1` (configuration not stated) here?
**A.** > 79 µM (inactive)

**Q.** For `CC(=O)c1ccc(-c2cnc3c(NC=O)cc(-c4cccc(C(=O)N(C)C)c4)cn23)cc1`, which IC50 is on record?
**A.** 14 µM

**Q.** How did the IC50 turn out when `COc1c(C)cc(Br)cc1C(=O)Nc1cccc(-c2nc3ncccc3o2)c1` was run?
**A.** > 79 µM (inactive)

**Q.** How did the IC50 turn out when `Cc1noc(C)c1Cn1nc(C(=O)O)c2ccccc2c1=O` was run?
**A.** > 79 µM (inactive)

**Q.** Which IC50 does the source give for `CCOC(=O)C1CCN(C(=O)c2ccc3c(=O)n4nc(Nc5ccccc5OC)sc4nc3c2)CC1` here?
**A.** 19.3 µM

**Q.** For `Cc1csc(SCc2nc3sc4c(c3c(=O)[nH]2)CCC4)n1`, which IC50 is on record?
**A.** > 79 µM (inactive)

**Q.** For `COc1ccc(CCn2c(=O)c3cccnc3n(Cc3ccc([N+](=O)[O-])cc3)c2=O)cc1OC`, which IC50 is on record?
**A.** 10.1 µM

**Q.** How did the IC50 turn out when `COc1ccc(NCc2n[nH]c(=O)c3ccccc23)cc1` was run?
**A.** > 79 µM (inactive)

**Q.** `NC(=O)c1nsc(C(=O)N(c2ccccc2)C(C(=O)NC2CCCC2)c2ccc3ncccc3c2)c1N` (configuration not stated) was tested. Which IC50 did it give?
**A.** > 79 µM (inactive)

**Q.** `COc1ccccc1NS(=O)(=O)c1cc(NC(=O)CCc2nc3ccccc3c(=O)[nH]2)ccc1C` was tested. Which IC50 did it give?
**A.** 11.4 µM

**Q.** With `COc1ccc(-c2oc3c(OC)c(OC)c(OC)c(O)c3c(=O)c2OC)cc1OC` as the compound, how does the IC50 read?
**A.** > 79 µM (inactive)

**Q.** With `O=C(Nc1nnc(-c2ccco2)o1)c1ccc2ccccc2c1` as the compound, how does the IC50 read?
**A.** > 79 µM (inactive)

**Q.** With `CCC(=O)Nc1cccc(-c2nnc(-c3cccc(NC(=O)CC)c3)o2)c1` as the compound, how does the IC50 read?
**A.** > 79 µM (inactive)

**Q.** With `O=C(CCc1nc2ccccc2c(=O)[nH]1)Nc1ccc(F)c([N+](=O)[O-])c1` as the compound, how does the IC50 read?
**A.** 6.81 µM

**Q.** With `Cc1ccc(C(C(=O)NCc2ccccc2)N(Cc2ccco2)C(=O)c2snc(C(N)=O)c2N)o1` (configuration not stated) as the compound, how does the IC50 read?
**A.** > 79 µM (inactive)

**Q.** Which IC50 does the source give for `CCOc1ccc(-n2cc(-c3ccccc3)c3c(N4CCOCC4)ncnc32)cc1` here?
**A.** > 79 µM (inactive)

**Q.** How did the IC50 turn out when `O=CNc1cc(-c2ccc(C(=O)NC3CC3)cc2)cn2c(-c3ccccc3)cnc12` was run?
**A.** 12.1 µM

**Q.** `COc1ccc(C(C(=O)NCc2ccccc2)N(Cc2ccco2)C(=O)c2snc(C(N)=O)c2N)cc1` (configuration not stated) was tested. Which IC50 did it give?
**A.** > 79 µM (inactive)

**Q.** For `O=C(NC1CCCCC1)C(c1ccc2ncccc2c1)N(Cc1cccs1)C(=O)c1cccs1` (configuration not stated), which IC50 is on record?
**A.** 22 µM

**Q.** How did the IC50 turn out when `O=C(Nc1ccc2c(c1)[nH]c(=O)c1ccccc12)C(F)(F)F` was run?
**A.** > 79 µM (inactive)

**Q.** For `COCCn1nnnc1CN(CCc1ccccc1)Cc1cc2cc(OC)ccc2[nH]c1=O`, which IC50 is on record?
**A.** > 79 µM (inactive)

**Q.** `O=C(CCCSc1nc2sc3c(c2c(=O)[nH]1)CCC3)NCCCO` was tested. Which IC50 did it give?
**A.** > 79 µM (inactive)

**Q.** For `COc1ccc(-n2nc(C(=O)NCC(=O)Nc3cc(OC)c(OC)c(OC)c3)c3ccccc3c2=O)cc1Cl`, which IC50 is on record?
**A.** > 79 µM (inactive)

**Q.** `O=C(CCc1nc2ccccc2c(=O)[nH]1)N1CCCc2ccccc21` was tested. Which IC50 did it give?
**A.** > 79 µM (inactive)

**Q.** `COc1ccc(NC(=O)COc2cccc3c2CCNC3=O)cc1` was tested. Which IC50 did it give?
**A.** > 79 µM (inactive)

**Q.** How did the IC50 turn out when `COc1cc(CCNc2ccc3nnc(-c4ccccc4)n3n2)cc(OC)c1OC` was run?
**A.** 23.9 µM

**Q.** For `CCOc1ccc(C(=O)COC(=O)Cn2[nH]c(=O)c3ccccc3c2=O)cc1`, which IC50 is on record?
**A.** > 79 µM (inactive)

**Q.** For `O=C(CCc1nc2ccccc2c(=O)[nH]1)N1CCN(S(=O)(=O)c2ccc(F)cc2)CC1`, which IC50 is on record?
**A.** > 79 µM (inactive)

**Q.** `O=C(COc1cccc(NC(=O)c2cccc([N+](=O)[O-])c2)c1)c1ccc(F)cc1` was tested. Which IC50 did it give?
**A.** > 79 µM (inactive)

**Q.** `COCCCN(Cc1ccco1)C(=O)Cn1ncc2c([nH]c3ccccc32)c1=O` was tested. Which IC50 did it give?
**A.** 13.8 µM

**Q.** Which IC50 does the source give for `CCC(=O)N1CCN(c2ccc(NC(=O)c3cc4ccccc4o3)cc2Cl)CC1` here?
**A.** > 79 µM (inactive)

**Q.** With `COc1cccc(NC(=O)COc2cccc3c2CCNC3=O)c1` as the compound, how does the IC50 read?
**A.** 54.5 µM (inactive)

**Q.** `Cc1ccc(-n2cc(-c3ccccc3)c3c(N4CCOCC4)ncnc32)cc1` was tested. Which IC50 did it give?
**A.** > 79 µM (inactive)

**Q.** For `COc1ccc(-c2cc(C(=O)NNC(=O)c3csc(N4CCOCC4)n3)c3ccccc3n2)cc1`, which IC50 is on record?
**A.** > 79 µM (inactive)

**Q.** How did the IC50 turn out when `CCCCCCSc1ccc([C@H]2N[C@@](Cc3ccccc3)(C(=O)OC)[C@H]3C(=O)N(C)C(=O)[C@@H]23)cc1` was run?
**A.** > 79 µM (inactive)

**Q.** How did the IC50 turn out when `Cc1ccccc1OCC(=O)NNC(=O)Cn1[nH]c(=O)c2ccccc2c1=O` was run?
**A.** > 79 µM (inactive)

**Q.** With `C/C(=N\Nc1nnc2c3ccccc3n(C)c2n1)c1ccc(C)o1` as the compound, how does the IC50 read?
**A.** > 79 µM (inactive)

**Q.** Which IC50 does the source give for `O=c1[nH]n(CC2COC3(CCCCC3)O2)c(=O)c2ccccc12` (configuration not stated) here?
**A.** > 79 µM (inactive)

**Q.** How did the IC50 turn out when `COc1ccc(OCC(=O)NCc2n[nH]c(=O)c3ccccc23)cc1` was run?
**A.** > 79 µM (inactive)

**Q.** For `NC(=O)c1nsc(C(=O)N(c2ccccc2F)C(C(=O)NCc2ccccc2)c2ccc(O)cc2)c1N` (configuration not stated), which IC50 is on record?
**A.** > 79 µM (inactive)

**Q.** With `COc1cc2nc(Nc3ccc(F)cc3)nc(N)c2cc1OC` as the compound, how does the IC50 read?
**A.** 42.9 µM (inactive)

**Q.** `COc1ccccc1C(=O)Nc1nc(-c2ccc3c(c2)OCCO3)cs1` was tested. Which IC50 did it give?
**A.** > 79 µM (inactive)

**Q.** For `CCOc1ccc2nc(NC(=O)CN3CCC(n4nnc5cc(F)ccc54)CC3)sc2c1`, which IC50 is on record?
**A.** > 79 µM (inactive)

**Q.** `COc1ccccc1-c1cc(NC=O)c2ncc(-c3cccc(C(C)=O)c3)n2c1` was tested. Which IC50 did it give?
**A.** > 79 µM (inactive)

**Q.** `O=C(Cn1[nH]c(=O)c2ccccc2c1=O)N1CC=C(c2ccccc2)CC1` was tested. Which IC50 did it give?
**A.** 21 µM

**Q.** Which IC50 does the source give for `COc1ccc(-c2nn(-c3ccccc3)cc2C(=O)Nc2nccs2)cc1` here?
**A.** 12.1 µM

**Q.** How did the IC50 turn out when `NC(=O)c1c(NC(=O)Cn2nc(C(=O)O)c3ccccc3c2=O)sc2c1CCC2` was run?
**A.** > 79 µM (inactive)

**Q.** `O=C(/C=C/NNC(=O)c1ccccc1)c1ccc(Br)cc1` was tested. Which IC50 did it give?
**A.** > 79 µM (inactive)

**Q.** With `COc1cc(CN2C[C@@H](CO)O[C@@H](n3cnc4c(Nc5ccccc5)ncnc43)C2)cc(OC)c1OC` as the compound, how does the IC50 read?
**A.** 12.7 µM

**Q.** Which IC50 does the source give for `Cc1ccc(-c2n[nH]c(=O)c3ccccc23)cc1S(=O)(=O)NC(C)(C)C` here?
**A.** > 79 µM (inactive)

**Q.** With `CCc1ccc(C(C)NC(=O)c2cc(C)oc2C)cc1` (configuration not stated) as the compound, how does the IC50 read?
**A.** > 79 µM (inactive)

**Q.** With `CCOC(=O)C1=NN(C(=O)c2ccco2)C2(CC2)C1` as the compound, how does the IC50 read?
**A.** > 79 µM (inactive)

**Q.** How did the IC50 turn out when `NC(=O)c1cc2ccccc2o/c1=N\NC(=O)c1ccc(F)cc1` was run?
**A.** 8.81 µM

**Q.** `Cc1ccc(-c2nn3c(-c4ccco4)nnc3c3ccccc23)cc1S(=O)(=O)NCC1CCCO1` (configuration not stated) was tested. Which IC50 did it give?
**A.** 23.3 µM

**Q.** With `CCOC(=O)C1CCN(C(c2cc3c(C)ccc(C)c3[nH]c2=O)c2nnnn2C2CCCCC2)CC1` (configuration not stated) as the compound, how does the IC50 read?
**A.** > 79 µM (inactive)

**Q.** For `COc1cccc(NC(=O)c2oc3ccc(S(=O)(=O)N4CCOCC4)cc3c2C)c1`, which IC50 is on record?
**A.** > 79 µM (inactive)

**Q.** `COc1ccc(-c2nn3c(-c4ccccc4)nnc3s2)cc1OC` was tested. Which IC50 did it give?
**A.** > 79 µM (inactive)

**Q.** With `CC(C)(C)C(=O)Nc1cccc(-c2nnc(-c3cccc(NC(=O)C(C)(C)C)c3)o2)c1` as the compound, how does the IC50 read?
**A.** > 79 µM (inactive)

**Q.** `CC1Nc2ncnc(N3CCN(c4ccccc4)CC3)c2N(Cc2ccc(Br)cc2)C1=O` (configuration not stated) was tested. Which IC50 did it give?
**A.** > 79 µM (inactive)
